Measured values as given in paper PMC8070745, “FEN1 Blockade for Platinum Chemo-Sensitization and Synthetic Lethality in Epithelial Ovarian Cancers” (Cancers, 2021).

Experiments:
[1] = system: FEN1 mRNA in A2780cis cells; assay: qRT-PCR FEN1 mRNA expression, A2780cis; assay type: cell-based, human; conditions: 24 h exposure to cisplatin
Protocol: (1:200, ab26343). Infrared dye-labelled secondary antibodies (Li-Cor) [IRDye 800CW Donkey Anti-Rabbit IgG and IRDye 680CW Donkey Anti-Mouse IgG] were incubated at a dilution of 1:10000 for 1 h. Membranes were scanned with a LiCor Odyssey machine (700 and 800 nm) to determine protein expression. ß-Tubulin or ß-actin was used as a loading controls for the whole cell lysates. GADPH and YYI were used as loading controls to cytoplasmic and nuclear fractions, respectively. First incubation was with FEN1 antibody and then imaged. This was followed by incubation with loading control and then imaged for analysis. Bar charts show means of optical density (O.D.) ± S.D and all data is representative of at least three independent experiments. qRT-PCR analysis of FEN1 gene expre ssion: RNA was extracted using the RNeasy Mini Kit (74104, Qiagen) and quantified using a Nanodrop 2000c (Thermo Fisher Scientific). cDNA synthesis was performed using the RT2 First Strand Kit (330404, Qiagen). Real time PCR was carried out on an Applied Biosystems […] FAST cycler.
Neutral COMET assay: 1.0x10^5 cells per well were seeded in 6 well tissue culture plates and incubated at 37°C and 5% CO2 overnight. […] Fifty comets were scored per sample using Comet Assay III/IV image analysis software (Perceptive Instruments, Bury St Edmonds, UK). […]

PEO1 spheroids = assay: 3D spheroid assay, PEO1; assay type: cell-based, human; conditions: PEO1 spheroids vs PEO4 spheroids
Protocol: with ice cold PBS and fixed in 70% ethanol for 1h at -20°C. After removal of the fixative solution by centrifugation, cells were stained with 2 µg/ml of phospho-Histone (γH2AX) Ser139 (16202A, Millipore, UK) to detect DSBs.
Cell cycle progression: Cells were treated with 20 µg/ml RNase A (12091021, Invitrogen) and then 10 µg/ml Propidium Iodide (P4170, Sigma Aldrich) was added to determine the cell cycle distribution. The samples were analysed on a Beckman-Coulter FC500 flow cytometer using a 488nm laser for excitation and emission data for PI collected using a 620nm bandpass filter (FL3) and a 525nm bandpass filter (FL1) for FITC-anti-phospho-Histone H2A.X.
Apoptosis detection: Annexin V detection kit (556547, BD Biosciences) was used to quantify apoptotic cells. Briefly, cells were trypsinized, washed with PBS and the cellular pellet was re-suspended in Anexin Binding Buffer (1×). […] All the samples were analysed on a Beckman-Coulter FC500 flow cytometer. The percentage of apoptotic cells was determined (late apoptotic = FITC-Annexin V positive, PI positive early apoptotic = FITC-Annexin V positive, PI negative; live cells = FITC-Annexin V negative, PI negative) and compared for untreated and treated samples. […]
To quantify cell viability, LIVE/DEAD Viability/Cytotoxicity Kit (L3224, Thermo Fisher Scientific) was used. […] At least 10 spheroids were measured. […]

Compound | FEN1 mRNA expression after cisplatin [1] | spheroid sensitivity to FEN1 inhibitor (PEO1 spheroids)
N.N.[Cl][Pt][Cl] [cisplatin] | increased by day 1 and persisted at least until day 4 | 
Cc1csc2c1c(=O)n(O)c(=O)n2-c1ccccc1 [PTPD, 3-hydroxy-5-methyl-1-phenylthieno [2,3 d]pyrimidine-2,4(1H,3H)-dione] |  | hypersensitive to FEN1 inhibition
